Data published in patent US20090143426A1, “Synthesis of 1,3,6-trisubstituted-2-carboxyquinol-4-ones as selective ET A antagonists and their use as medicaments” (priority 2007, published 2009).
pIC50: −log10 of the molar value. Entries after “also recorded” stand apart in the source; their conditions may differ.

Tests used:
[1] = tested on: LPS-induced (infection-associated) preterm labor and delivery in pregnant C57B1/6 mice; experiment: Animal model of preterm birth (LPS-injected timed pregnant mice); format: in vivo, mouse
Method: Animal models of preterm birth. The Animal Care and Utilization Committee of the College of Pharmacy and Allied Health Professions, St. John's University approved all experimental protocols, and the research was conducted according to the requirements of NIH Guide for the Care and Use of Laboratory Animals (revised 1996). C57B1/6 mice from Taconic Laboratory were used for all experiments. Animals were housed in plastic cages in a temperature-controlled animal facility with alternating 12:12 hour light-dark cycles, with ad libitum access to food and water.
Nineteen timed pregnant C57B1/6 E15.5 mice were injected with LPS in 0.5 ml PBS at a concentration of 50 mg/kg. These mice were randomly assigned to two groups. Group A mice (n=8) received 50 mg/kg HJP272 dissolved in PBS and Group B mice (n=11) received PBS only.
All treatments were administered by ip injection 10 hours after LPS injection. Mice were continually monitored and the time of delivery of all pups, as well as the number of pups delivered, was recorded. All mice were autopsied at the end of the experiment to confirm pregnancy and to determine the number of pups retained in utero.

[2] = target: T1, BioXTal ET-A receptor (Homo sapiens, UniProt P25101); experiment: In vitro competitive binding assay with [125I]Tyr13-ET-1, ET-A receptor; conditions: [125I]ET-1 224 pM; 10 ug receptor; 30 to 32° C., two hours; triplicate; read-out: IC50, inhibition of specific [125I] ET-1 binding to ETA receptor
T1 construct: purchased BioXTal
T1 sequence (P25101 21-427): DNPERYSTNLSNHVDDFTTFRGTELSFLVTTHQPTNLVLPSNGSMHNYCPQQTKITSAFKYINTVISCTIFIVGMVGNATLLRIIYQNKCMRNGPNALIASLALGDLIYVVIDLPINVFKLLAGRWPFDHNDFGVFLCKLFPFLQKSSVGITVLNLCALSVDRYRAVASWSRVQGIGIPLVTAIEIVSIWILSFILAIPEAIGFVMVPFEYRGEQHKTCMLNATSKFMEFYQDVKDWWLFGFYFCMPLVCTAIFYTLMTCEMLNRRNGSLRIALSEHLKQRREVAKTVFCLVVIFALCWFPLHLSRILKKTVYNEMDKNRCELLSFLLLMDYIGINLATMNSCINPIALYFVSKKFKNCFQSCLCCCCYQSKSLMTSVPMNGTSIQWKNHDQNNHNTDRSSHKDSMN
Method: (§1) In vitro binding assay. Varying concentrations of HJP272, ranging from 10^3 to 10^8 pM, were incubated with 10 ug of BioXTal ET-A or ET-B receptor and 224 pM [^125I]Tyr13-ET-1 in 50 mM NaH2PO4, 150 mM NaCl, 5 mM EDTA, and 0.1% bovine serum albumin.
(§2) For total binding, radio labeled ET-1 and receptor were incubated without the receptor antagonist. For non-specific binding, 300 nM cold ET-1 was substituted for the antagonist. Assay mixtures were incubated at 30 to 32° C. for two hours and the assays were stopped by the addition of cold buffer. Assay mixtures were then quickly filtered through GF/C Whatman filters and washed with cold assay buffer in a Millipore sampling manifold. Filters were collected and counts per minute of the bound radio labeled ET-1 were read by a Packard Cobra Gamma Counter (Perkin Elmer).
(§3) Percent specific binding was calculated for all data points. Assays containing ET-A receptor were run in triplicate and assays containing the ET-B receptor were run in duplicate.

[3] = target: T2, BioXTal ET-B receptor (Homo sapiens, UniProt P24530); experiment: In vitro competitive binding assay with [125I]Tyr13-ET-1, ET-B receptor; conditions: selectivity ETA versus ETB; ET-B assays in duplicate
T2 construct: purchased BioXTal
T2 sequence (P24530 27-442): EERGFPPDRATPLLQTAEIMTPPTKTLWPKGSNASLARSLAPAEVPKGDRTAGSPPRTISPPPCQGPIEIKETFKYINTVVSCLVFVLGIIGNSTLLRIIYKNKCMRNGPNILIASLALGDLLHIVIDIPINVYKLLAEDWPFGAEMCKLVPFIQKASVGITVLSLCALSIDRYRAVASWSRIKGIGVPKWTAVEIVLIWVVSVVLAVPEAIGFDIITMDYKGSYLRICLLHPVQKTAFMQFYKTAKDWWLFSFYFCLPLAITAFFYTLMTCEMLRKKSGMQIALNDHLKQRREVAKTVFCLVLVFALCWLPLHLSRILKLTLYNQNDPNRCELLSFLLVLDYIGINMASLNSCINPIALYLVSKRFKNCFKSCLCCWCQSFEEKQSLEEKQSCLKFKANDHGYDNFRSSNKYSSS
Method: as §1, §2, §3

[4] = tested on: BALF neutrophils in female Syrian hamsters; experiment: Animal model of smoking related acute lung injury (ET-1 plus cigarette smoke, BALF neutrophils); format: in vivo, hamster; conditions: 500 μg IP 60 minutes before 5 μg ET-1, then cigarette smoke two hours, three days
Method: Animal models of smoking related acute lung injury. The Animal Care and Utilization Committee of the College of Pharmacy and Allied Health Professions, St. John's University approved all experimental protocols, and the research was conducted according to the requirements of NIH Guide for the Care and Use of Laboratory Animals (revised 1996).
Female Syrian hamsters, weighing approximately 100 g each, were divided into two groups as follows: Group 1 was treated IP with: 1) 500 μg of HJP272 in 0.5 mL Na2CO3 and 2) 5 μg ET-1 in 0.25 mL PBS 60 minutes later, followed immediately by exposure to cigarette smoke for two hours. This regimen was continued for three days.
Group 2 was treated IP with: 1) 0.5 mL Na2CO3 and 2) […] ET-1 in 0.25 mL PBS 60 minutes later, followed immediately by exposure to cigarette smoke for three consecutive days as per Group 1. The animals were placed in a 70×48×38 cm chamber and passively exposed to cigarette smoke produced by a TE-10 smoking machine (Teague Enterprises, Davis, Calif.) that simultaneously burned two filtered research-grade cigarettes (type 2R4F, University of Kentucky). Smoke from both the filtered and burning ends of the cigarette was collected, and then mixed together with air in a separate chamber, thus simulating second-hand smoke exposure. Each cigarette was puffed once per minute for two seconds at a flow rate of 1.05 LPM, yielding 35 mL of smoke. This cycle was repeated nine times before ejecting the cigarette and loading a new one. Proper flow rate was maintained by a vacuum pump that established negative pressure at the exhaust port. Total smoke particulates averaged 87 mg per cubic meter.
All animals were sacrificed 24 hours after completing the smoke exposure regimen to maximize the neutrophil population in the lung, and the percentage of BALF neutrophils was measured (van der Vaart et al. 2004)

[5] = tested on: attachment of neutrophils to colonic submucosal venules; conditions: inflammatory bowel disease; Anthoni et al. 2006; cited from earlier work

Row | SMILES | percent of prematurely delivered pups ([1]; E15.5 mice, LPS 50 mg/kg, 50 mg/kg ip 10 hours after LPS, PBS control 39.7) [%] | mice that delivered prematurely ([1]; E15.5 mice, LPS 50 mg/kg, 50 mg/kg ip 10 hours after LPS, control 11 out of 11) | control of premature labor and delivery ([1]; LPS followed by compound versus LPS followed by vehicle) | prevention of premature expulsion of pups ([1]; LPS followed by compound versus LPS followed by vehicle, P<0.0001) | average delivery time (T) ([1]; the six treated mice that delivered, LPS 50 mg/kg, PBS control T10.9+/−0.61, p<0.0001) [h] | craniofacial anomalies in pups ([1]; transient exposure, late in gestation) | pIC50 [2] | melting point [°C] | ratio of IC50 for the endothelin B receptor to IC50 for the endothelin A receptor [3] | effect on the ET-1-induced rise of BALF neutrophils (words) [4] | effect on the ET-1-induced rise of BALF neutrophils (words) ([4]; listed as ETA-RA) | effect on the ET-1-induced rise of BALF neutrophils (words) ([4]; listed as HJP-272) | attachment of neutrophils to colonic submucosal venules [5]
1 | CCc1cc2c(cc1Cn1c(C(=O)O)c(Cc3cccc(C(=O)O)c3)c(=O)c3cc(O)ccc31)OCO2 [HJP272, 3-(3-carboxybenzyl)-1-((6-ethylbenzo[d][1,3]dioxol-5-yl)methyl)-6-hydroxy-4-oxo-1,4-dihydroquinoline-2-carboxylic acid] | 30.0 | six out of eight | controlled preterm labor and delivery in our mouse model of infection-associated preterm labor very effectively; also recorded: significantly better control of premature delivery | significantly greater prevention of premature expulsion of pups | 15.0 ± 1.8 | None of the pups in the work presented here demonstrated such abnormalities | 7.15 | 206 to 208 | 219.2 | reversed | reversed this effect | reversed | 
2 | COc1ccccc1Oc1c(NS(=O)(=O)c2ccc(C(C)(C)C)cc2)nc(-c2ncccn2)nc1OCCO [bosentan] |  |  |  |  |  |  |  |  |  |  |  |  | markedly reduced attachment
